Results on seven compounds are retold here after US8106091B2, “Inhibitors of IKK-beta serine-threonine protein kinase” (Chroma Therapeutics Ltd., priority 2006, dated 2012).

Test [1] has as its target T1, IKBKB (IKKβ) (Homo sapiens, UniProt O14920).
T1 construct: purchased Invitrogen (Paisley, UK)
T1 sequence (O14920 1-756): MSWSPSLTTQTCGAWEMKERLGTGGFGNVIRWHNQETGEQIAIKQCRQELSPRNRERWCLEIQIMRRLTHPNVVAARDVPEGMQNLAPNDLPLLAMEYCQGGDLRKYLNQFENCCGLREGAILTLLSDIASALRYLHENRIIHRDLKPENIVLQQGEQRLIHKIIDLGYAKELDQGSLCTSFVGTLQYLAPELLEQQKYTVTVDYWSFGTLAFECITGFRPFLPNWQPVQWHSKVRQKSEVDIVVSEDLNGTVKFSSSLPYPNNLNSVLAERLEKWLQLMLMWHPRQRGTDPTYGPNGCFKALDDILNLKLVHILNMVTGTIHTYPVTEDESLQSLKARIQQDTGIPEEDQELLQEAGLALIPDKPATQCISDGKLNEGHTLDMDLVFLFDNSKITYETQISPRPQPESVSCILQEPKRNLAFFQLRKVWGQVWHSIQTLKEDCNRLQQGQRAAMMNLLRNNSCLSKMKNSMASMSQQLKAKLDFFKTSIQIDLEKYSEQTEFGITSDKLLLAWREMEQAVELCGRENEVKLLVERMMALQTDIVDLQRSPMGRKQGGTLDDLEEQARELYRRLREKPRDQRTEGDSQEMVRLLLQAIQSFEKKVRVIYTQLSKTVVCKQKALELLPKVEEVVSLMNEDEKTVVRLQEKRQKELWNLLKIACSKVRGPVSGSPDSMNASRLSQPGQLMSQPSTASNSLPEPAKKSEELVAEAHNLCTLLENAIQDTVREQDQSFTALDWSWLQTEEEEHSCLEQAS
The test is described as follows: IKKβ enzyme assay (Z'-LYTE, Invitrogen). Type of test: biochemical. The note with it: ATP at or close to Km; read-out: Inhibitor activity versus IKKβ. On the procedure:
The ability of compounds to inhibit IKKβ kinase activity was measured in an assay performed by Invitrogen (Paisley, UK). The Z′-LYTE™ biochemical assay employs a fluorescence-based, coupled-enzyme format and is based on the differential sensitivity of phosphorylated and non-phosphorylated peptides to proteolytic cleavage. The peptide substrate is labelled with two fluorophores—one at each end—that make up a FRET pair. In the primary reaction, the kinase transfers the gamma-phosphate of ATP to a single serine or threonine residue in a synthetic FRET-peptide. In the secondary reaction, a site-specific protease recognizes and cleaves non-phosphorylated FRET-peptides. Phosphorylation of FRET-peptides suppresses cleavage by the Development Reagent. Cleavage disrupts FRET between the donor (i.e., coumarin) and acceptor (i.e. fluorescein) fluorophores on the FRET-peptide, whereas uncleaved, phosphorylated FRET-peptides maintain FRET. A […] method, which calculates the ratio (the Emission Ratio) of donor emission to acceptor emission after excitation of the donor fluorophore at 400 nm, is used to quantitate reaction progress.
The final 10 μL Kinase Reaction consists of 0.9-8.0 ng IKBKB (IKKβ), 2 μM Ser/Thr 05 Peptide and ATP in 50 mM HEPES pH 7.5, 0.01% BRIJ-35, 10 mM MgCl2, 1 mM EGTA. The assay is performed at an ATP concentration at, or close to the Km. After the 60 minute Kinase Reaction incubation at room temperature, 5 μL of a 1:128 dilution of Development Reagent is added. The assay plate is incubated for a further 60 minutes at room temperature and read on a fluorescence plate reader.
Duplicate data points are generated from a ⅓ log dilution series of a stock solution of test compound in DMSO. Nine dilutions steps are made from a top concentration of 10 μM, and a ‘no compound’ blank is included. Data is collected and analysed using XLfit software from IDBS. The dose response curve is curve fitted to model number 205 (sigmoidal dose-response model). From the curve generated, the concentration giving 50% inhibition is determined and reported.

The test system of test [2] is THP-1 cells. Put plainly: LPS-stimulation of THP-1 cells, TNF-α release. It is filed as cell-based. As to conditions: Homo sapiens, LPS 1 μg/ml, 6 hrs, inhibitor added 2 hrs before, read-out: Inhibitor activity versus THP-1 TNFα release. On the procedure:
LPS-Stimulation of THP-1 Cells
THP-1 cells were plated in 100 μl at a density of 4×10^4 cells/well in V-bottomed 96 well tissue culture treated plates and incubated at 37° C. in 5% CO2 for 16 hrs. 2 hrs after the addition of the inhibitor in 100 μl of tissue culture media, the cells were stimulated with LPS (E coli strain 005:B5, Sigma) at a final concentration of 1 μg/ml and incubated at 37° C. in 5% CO2 for 6 hrs. TNF-α levels were measured from cell-free supernatants by sandwich ELISA (R&D Systems #QTA00B)

For test [3], the system named is human whole blood. Put plainly: LPS-stimulation of human whole blood, TNF-α release. As to conditions: LPS 100 ng/ml, 6 hrs, inhibitor added 2 hrs before, read-out: Inhibitor activity versus human whole blood TNFα release. It is filed as cell-based. On the procedure:
LPS-Stimulation of Human Whole Blood
Whole blood was taken by venous puncture using heparinised vacutainers (Becton Dickinson) and diluted in an equal volume of RPMI1640 tissue culture media (Sigma). 100 μl was plated in V-bottomed 96 well tissue culture treated plates. 2 hrs after the addition of the inhibitor in 100 μl of RPMI1640 media, the blood was stimulated with LPS (E coli strain 005:B5, Sigma) at a final concentration of 100 ng/ml and incubated at 37° C. in 5% CO2 for 6 hrs. TNF-α levels were measured from cell-free supernatants by sandwich ELISA (R&D Systems #QTA00B)

`NC(=O)Nc1sc(-c2ccc(OCCC[C@H](N)C(=O)OC3CCCC3)cc2)cc1C(N)=O` [Example 3, Cyclopentyl 5-{4-[4-carbamoyl-5-(carbamoylamino)-2-thienyl]phenoxy}-L-norvalinate]: the IC50 was less than 1 µM in test [1], 1 to 5 µM in test [2] and greater than 5 µM in test [3].
On to `NC(=O)Nc1sc(-c2ccc(/C=C\C[C@H](N)C(=O)OC3CCCC3)cc2)cc1C(N)=O` [Example 18, Cyclopentyl (2S,4Z)-2-amino-5-{4-[4-carbamoyl-5-(carbamoylamino)-2-thienyl]phenyl}pent-4-enoate], for which the IC50 is less than 1 µM in test [1], 1 to 5 µM in test [2] and 1 to 5 µM in test [3].
With `NC(=O)Nc1sc(-c2ccc(OCC[C@H](N)C(=O)OC3CCCC3)c(Cl)c2)cc1C(N)=O` [Example 8, Cyclopentyl O-{4-[4-carbamoyl-5-(carbamoylamino)-2-thienyl]-2-chlorolphenyl}-L-homoserinate], the results for the IC50 in test [1], in test [2] and in test [3] were less than 1 µM, 1 to 5 µM and greater than 5 µM, respectively.
The corresponding values for `NC(=O)Nc1sc(-c2ccc(/C=C/C[C@H](N)C(=O)OC3CCCC3)cc2)cc1C(N)=O` [Example 9, Cyclopentyl (2S,4E)-2-amino-5-{4-[4-carbamoyl-5-(carbamoylamino)-2-thienyl]phenyl}pent-4-enoate] are less than 1 µM, less than 1 µM and less than 1 µM.
In the same order, the values of `NC(=O)Nc1sc(-c2ccc(/C=C/C[C@H](N)C(=O)OC3CCCC3)cc2Cl)cc1C(N)=O` [Example 13, Cyclopentyl (2S,4E)-2-amino-5-{4-[4-carbamoyl-5-(carbamoylamino)-2-thienyl]-3-chlorophenyl}pent-4-enoate] are less than 1 µM, less than 1 µM and 1 to 5 µM.
As to `NC(=O)Nc1sc(-c2ccc(OCC[C@@H](N)C(=O)OC3CCCC3)cc2)cc1C(N)=O` [Example 1, Cyclopentyl O-{4-[4-carbamoyl-5-(carbamoylamino)-2-thienyl]phenyl}-D-homoserinate], the IC50 was less than 1 µM in test [1], less than 1 µM in test [2] and 1 to 5 µM in test [3].
As to `NC(=O)Nc1sc(-c2ccc(C[C@H](N)C(=O)OC3CCCC3)cc2)cc1C(N)=O` [Example 16, Cyclopentyl 4-[4-carbamoyl-5-(carbamoylamino)-2-thienyl]-L-phenylalaninate], the IC50 in test [1] was less than 1 µM; in test [2] it was less than 1 µM; in test [3] it was 1 to 5 µM.
